Measurements taken from the Kinase Knowledgebase extract (Sharma et al. 2016).

Molecular target: EGFR (UniProt P00533)
Conditions: concentration not given here

Sequence of EGFR (P00533 whole entry, looked up): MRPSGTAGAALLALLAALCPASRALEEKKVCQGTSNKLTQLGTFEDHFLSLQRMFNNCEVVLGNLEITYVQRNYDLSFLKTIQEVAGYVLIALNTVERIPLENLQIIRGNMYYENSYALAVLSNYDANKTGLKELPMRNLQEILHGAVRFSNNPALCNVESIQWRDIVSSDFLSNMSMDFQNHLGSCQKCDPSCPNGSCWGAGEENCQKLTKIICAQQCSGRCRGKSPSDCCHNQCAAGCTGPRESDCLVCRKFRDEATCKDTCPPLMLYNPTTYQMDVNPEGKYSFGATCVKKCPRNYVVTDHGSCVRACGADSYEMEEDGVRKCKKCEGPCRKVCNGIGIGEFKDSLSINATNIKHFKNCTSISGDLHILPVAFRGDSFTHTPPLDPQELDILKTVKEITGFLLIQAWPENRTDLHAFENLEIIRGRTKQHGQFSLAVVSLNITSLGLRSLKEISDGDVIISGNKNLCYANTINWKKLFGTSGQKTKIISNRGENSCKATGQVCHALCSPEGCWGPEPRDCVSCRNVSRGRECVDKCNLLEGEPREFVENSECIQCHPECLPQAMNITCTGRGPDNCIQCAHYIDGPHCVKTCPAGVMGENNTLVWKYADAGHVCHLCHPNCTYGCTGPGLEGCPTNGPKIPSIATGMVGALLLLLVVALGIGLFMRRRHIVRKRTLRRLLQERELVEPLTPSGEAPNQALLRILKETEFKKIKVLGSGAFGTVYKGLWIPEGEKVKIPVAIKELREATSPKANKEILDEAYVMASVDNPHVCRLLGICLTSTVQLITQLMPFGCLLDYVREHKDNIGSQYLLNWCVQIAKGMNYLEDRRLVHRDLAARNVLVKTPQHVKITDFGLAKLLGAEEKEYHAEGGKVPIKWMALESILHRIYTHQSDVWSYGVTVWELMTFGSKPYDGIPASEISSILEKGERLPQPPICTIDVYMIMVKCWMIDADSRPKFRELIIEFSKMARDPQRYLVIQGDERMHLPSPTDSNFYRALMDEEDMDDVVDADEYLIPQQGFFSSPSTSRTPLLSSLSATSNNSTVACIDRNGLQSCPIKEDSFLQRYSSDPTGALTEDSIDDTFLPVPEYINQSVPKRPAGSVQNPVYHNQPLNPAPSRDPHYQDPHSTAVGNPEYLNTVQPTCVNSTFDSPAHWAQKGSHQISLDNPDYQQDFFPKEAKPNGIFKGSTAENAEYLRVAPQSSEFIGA

`COCOc1cc(C(C)(C)C)ccc1-c1ccc(C(=O)NCc2ccccc2)cc1` and `COCOc1cc(-c2ccccc2)ccc1-c1ccc(C(=O)NCc2ccccc2)cc1` are the same in inhibition: 0% for the first, 0% for the second.

`CC(C)(C)c1cc(O)cc(-c2ccc(C(=O)NCc3ccccc3)cc2)c1` and `CC(C)(C)c1cc(O)cc(-c2ccc(CO)cc2)c1` are the same in inhibition: 0% for the first, 0% for the second.

`O=C(NCc1ccccc1)c1ccc(-c2cccc(-c3ccccc3)c2O)cc1` and `O=C(NCc1ccccc1)c1ccc(-c2ccc(-c3ccccc3)cc2O)cc1` are the same in inhibition: 0% for the first, 0% for the second.

`CC(C)(C)c1ccc(-c2ccc(C(=O)O)cc2)c(O)c1` and `COCOc1cc(C(C)(C)C)ccc1-c1ccc(C(=O)OC)cc1` are the same in inhibition: 0% for the first, 0% for the second.

Compared with `COC(=O)c1ccc(-c2ccc(-c3ccccc3)cc2O)cc1`, `COCOc1cc(-c2ccccc2)ccc1-c1ccc(C(=O)OCC(C)CC(C)(C)C)cc1` (centres undefined) is lower in inhibition: 14% for the first, 0% for the second.

Molecular target: EGFR (Hamster) (UniProt P00533)
Conditions: er22, dose or concentration not given here

Sequence of EGFR (Hamster) (P00533 whole entry, looked up): as above

`O=C(NCc1ccccc1)c1ccc(-c2cccc(-c3ccccc3)c2O)cc1` and `CC(C)(C)c1ccc(-c2ccc(C(=O)O)cc2)c(O)c1` are the same in inhibition: 0% for the first, 0% for the second.

`COC(=O)c1ccc(-c2cc(O)cc(C(C)(C)C)c2)cc1` and `COC(=O)c1ccc(-c2ccc(C(C)(C)C)cc2O)cc1` are the same in inhibition: 0% for the first, 0% for the second.
